Earlier results, collected in publication PMC3325405 (Amino Acids, 2011).

Biological target: Klebsiella aerogenes enzyme (urease)
Settings: read-out: K i, Klebsiella aerogenes urease; ref Todd 1989

Structure (SMILES): CC(=O)NO [AHA, acetohydroxamic acid]
- Ki: 2600 nM
